pIC50: −log10 of the molar value. Read-outs that look alike come from different tables or passages of the source.
Columns and labels:
[1] = system: HCV replicon cells Huh 9B; test: HCV replicon assay (luciferase readout); type: cell-based
Method: (§1) HCV replicon cells Huh 9B (ReBlikon), containing the firefly luciferase-ubiquitin-neomycin phosphotransferase fusion protein and EMCV-IRES driven HCV polyprotein with cell culture adaptive mutations.
Cells were cultured at 37° C. in a 5% CO2 environment and split twice a week on seeding at 2×10^6 cells/flask on day 1 and 1×10^6 3 days later. G418 at 0.5 mg/ml was added to the culture medium but not the assay medium.
The culture medium consisted of DMEM with […] glucose and glutamax (Gibco 61965-026) supplemented with 1× non-essential amino acids (Invitrogen 11140-035), penicillin (100 IU/ml)/streptomycin (100 μg/ml) (Invitrogen 15140-122), FCS (10%, 50 ml) and 1 mg/ml G418 (Invitrogen 10131-027) & 10% Australian foetal calf serum (Invitrogen 10099-141).
A flask of cells was trypsinised and a cell count carried out. Cells were diluted to 100,000 cells/ml and 100 μl of this used to seed one opaque white 96-well plate (for the replicon assay) and one flat-bottomed clear plate (for the tox assay) for every seven compounds to be tested for IC50. Wells G12 and H12 were left empty in the clear plate as the blank. Plates were then incubated at 37° C. in a 5% CO2 environment for 24 h.
(§2) On the following day compound dilutions are made up in medium at twice their desired final concentration in a clear round bottomed plate. All dilutions have a final DMSO concentration of 1%.
Once the dilution plate had been made up, controls and compounds were transferred to the assay plate (containing the cells) at 100 μl /well in duplicate plates. Exception: no compound was added to wells A1 and A2 of either plate and 100 μl of 1% DMSO was added to these instead. Plates were then incubated at 37° C. with 5% CO2 for 72 h.
At the end of the incubation time, the cells in the white plate were harvested by washing 23.5 mM beetle luciferin (Promega E1603), 26 mM ATP (Sigma 0-2060) in […] Tris buffer pH 7.8 aliquoted and stored at −80 C was thawed and diluted 1:50 in luciferase assay buffer (20 mM Tricine (Sigma T-0377), 1.07 mM magnesium carbonate hydroxide (Sigma M-5671), 0.1 mM EDTA (Sigma E-5134), 2.67 mM MgSO4 (BDH 101514Y), 33.3 mM dithiothreitol (Sigma 150460) pH 7.8).
The M injector of the microplate luminometer (Lmax, Molecular Devices) was primed with 5×300 μl injections of the diluted substrate. After 5-60 min incubation in lysis buffer at room temperature, a plate was inserted into the luminometer and 100 μl luciferase assay reagent was added by the injector on the luminometer. The signal was measured using a 1 second delay followed by a 4 second measurement programme.

[2] = system: HCV replicon cells Huh 9B; type: cell-based
Method: as §1
A flask of cells was trypsinised and a cell count carried out. […] Wells G12 and H12 were left empty in the clear plate as the blank. Plates were then incubated at 37° C. in a 5% CO2 environment for 24 h.
as §2
Exception: no compound was added to wells A1 and A2 of either plate and 100 μl of 1% DMSO was added to these instead. Plates were then incubated at 37° C. with 5% CO2 for 72 h.
The clear plate was stained with 100 μl 0.5% methylene blue in 50% ethanol at room temperature for 1 h, followed by solvation of the absorbed methylene blue in 100 μl per well of 1% lauroylsarcosine. Absorbance of the plate was measured on a microplate spectrophotometer (Molecular Devices) and the absorbance for each concentration of compound expressed as a proportion of the relative DMSO control.

[3] = Hepatitis C virus, 72 h, concentration reducing replicon level (luciferase activity) by 50% vs untreated cell control, 72 h incubation
[4] = concentration reducing total cell area by 50% relative to DMSO controls, methylene blue, absorbance 620 nm, 72 h incubation

Structure (SMILES): Cc1ccc(C(=O)Nc2ccc(N3CCOCC3)cc2)cc1-c1ccc(C(=O)NCc2ccc(N3CCOCC3)cc2)cc1 [Example 20, 6-Methyl-biphenyl-3,4′-dicarboxylic acid 4′-(4-morpholin-4-yl-benzylamide) 3-[(4-morpholin-4-yl-phenyl)-amide]]
- pIC50 [1]: < 5.30
- TD50 [2]: ** (key: * < 50 μM; ** > 50 μM)

Structure (SMILES): CCCCNS(=O)(=O)c1cccc(NC(=O)c2ccc(-c3cc(C(=O)Nc4ccc(N5CCOCC5)cc4)ccc3C)cc2)c1 [Example 21, 6-Methyl-biphenyl-3,4′-dicarboxylic acid 4′-[(3-butylsulfamoyl-phenyl)-amide] 3-[(4-morpholin-4-yl-phenyl)-amide]]
- pIC50 [1]: 5.30 to 6.00
- TD50 [2]: ** (key: * < 50 μM; ** > 50 μM)

Structure (SMILES): Cc1ccc(C(=O)Nc2ccc(N3CCOCC3)cc2)cc1-c1ccc(C(=O)Nc2ccc(Cl)c(Cl)c2)cc1 [Example 22, 6-Methyl-biphenyl-3,4′-dicarboxylic acid 4′-[(3,4-dichloro-phenyl)-amide] 3-[(4-morpholin-4-yl-phenyl)-amide]]
- pIC50 [1]: 5.30 to 6.00
- TD50 [2]: ** (key: * < 50 μM; ** > 50 μM)

Structure (SMILES): Cc1ccc(C(=O)Nc2ccc(N3CCOCC3)cc2)cc1-c1ccc(C(=O)Nc2cccc(C(F)(F)F)c2)cc1 [Example 23, 6-Methyl-biphenyl-3,4′-dicarboxylic acid 3-[(4-morpholin-4-yl-phenyl)-amide] 4′-[(3-trifluoromethyl-phenyl)-amide]]
- pIC50 [1]: 5.30 to 6.00
- TD50 [2]: * (key: * < 50 μM; ** > 50 μM)

Structure (SMILES): Cc1ccc(C(=O)Nc2ccc(N3CCOCC3)cc2)cc1-c1ccc(C(=O)Nc2ccc(C#N)cc2)cc1 [Example 24, 6-Methyl-biphenyl-3,4′-dicarboxylic acid 4′-[(4-cyano-phenyl)-amide] 3-[(4-morpholin-4-yl-phenyl)-amide]]
- pIC50 [1]: < 5.30
- TD50 [2]: ** (key: * < 50 μM; ** > 50 μM)

Structure (SMILES): Cc1ccc(C(=O)Nc2ccc(N3CCOCC3)cc2)cc1-c1ccc(C(=O)Nc2cccc(OC(F)(F)F)c2)cc1 [Example 25, 6-Methyl-biphenyl-3,4′-dicarboxylic acid 3-[(4-morpholin-4-yl-phenyl)-amide] 4′-[(3-trifluoromethoxy-phenyl)-amide]]
- pIC50 [1]: 5.30 to 6.00
- TD50 [2]: * (key: * < 50 μM; ** > 50 μM)

Structure (SMILES): Cc1ccc(C(=O)Nc2ccc(N3CCOCC3)cc2)cc1-c1ccc(C(=O)Nc2cccc(-c3ccn(C)n3)c2)cc1 [Example 26, 6-Methyl-biphenyl-3,4′-dicarboxylic acid 4′-{[3-(1-methyl-1H-pyrazol-3-yl)-phenyl]-amide} 3-[(4-morpholin-4-yl-phenyl)-amide]]
- pIC50 [1]: < 5.30
- TD50 [2]: ** (key: * < 50 μM; ** > 50 μM)

Structure (SMILES): Cc1ccc(C(=O)Nc2ccc(N3CCOCC3)cc2)cc1-c1ccc(C(=O)Nc2cccc(F)c2)cc1 [Example 27, 6-Methyl-biphenyl-3,4′-dicarboxylic acid 4′-[(3-fluoro-phenyl)-amide] 3-[(4-morpholin-4-yl-phenyl)-amide]]
- pIC50 [1]: 5.30 to 6.00
- TD50 [2]: ** (key: * < 50 μM; ** > 50 μM)

Structure (SMILES): Cc1ccc(C(=O)Nc2ccc(N3CCOCC3)cc2)cc1-c1ccc(C(=O)Nc2ccc(-c3ccno3)cc2)cc1 [Example 28, 6-Methyl-biphenyl-3,4′-dicarboxylic acid 4′-[(4-isoxazol-5-yl-phenyl)-amide] 3-[(4-morpholin-4-yl-phenyl)-amide]]
- pIC50 [1]: > 6.00
- TD50 [2]: ** (key: * < 50 μM; ** > 50 μM)

Structure (SMILES): CNS(=O)(=O)c1ccc(NC(=O)c2ccc(-c3cc(C(=O)Nc4ccc(N5CCOCC5)cc4)ccc3C)cc2)cc1 [Example 29, 6-Methyl-biphenyl-3,4′-dicarboxylic acid 4′-[(4-methylsulfamoyl-phenyl)-amide] 3-[(4-morpholin-4-yl-phenyl)-amide]]
- pIC50 [1]: > 6.00
- TD50 [2]: ** (key: * < 50 μM; ** > 50 μM)

Structure (SMILES): Cc1ccc(C(=O)Nc2ccc(N3CCOCC3)cc2)cc1-c1ccc(C(=O)Nc2ccc(Br)c(Cl)c2)cc1 [Example 30, 6-Methyl-biphenyl-3,4′-dicarboxylic acid 4′-[(4-bromo-3-chloro-phenyl)-amide] 3-[(4-morpholin-4-yl-phenyl)-amide]]
- pIC50 [1]: 5.30 to 6.00
- TD50 [2]: ** (key: * < 50 μM; ** > 50 μM)

Structure (SMILES): Cc1ccc(C(=O)Nc2ccc(N3CCOCC3)cc2)cc1-c1ccc(C(=O)Nc2cccc(C(C)O)c2)cc1 (stereo not drawn) [Example 31, 6-Methyl-biphenyl-3,4′-dicarboxylic acid 4′-{[3-(1-hydroxy-ethyl)-phenyl]-amide} 3-[(4-morpholin-4-yl-phenyl)-amide]]
- pIC50 [1]: 5.30 to 6.00
- TD50 [2]: ** (key: * < 50 μM; ** > 50 μM)

Structure (SMILES): CCOC(=O)c1cccc(NC(=O)c2ccc(-c3cc(C(=O)Nc4ccc(N5CCOCC5)cc4)ccc3C)cc2)c1 [Example 32, 3-{[2′-Methyl-5′-(4-morpholin-4-yl-phenylcarbamoyl) -biphenyl-4-carbonyl]-amino}-benzoic acid ethyl ester]
- pIC50 [1, 3]: > 6.00
- TD50 [2, 4]: ** (** > 50 μM)

Structure (SMILES): COc1cccc(NC(=O)c2ccc(-c3cc(C(=O)Nc4ccc(N5CCOCC5)cc4)ccc3C)cc2)c1 [Example 33, 6-Methyl-biphenyl-3,4′-dicarboxylic acid 4′-[(3-methoxy-phenyl)-amide] 3-[(4-morpholin-4-yl-phenyl)-amide]]
- pIC50 [1]: > 6.00
- TD50 [2]: ** (key: * < 50 μM; ** > 50 μM)

Structure (SMILES): COc1ccc(NC(=O)c2ccc(-c3cc(C(=O)Nc4ccc(N5CCOCC5)cc4)ccc3C)cc2)cc1OC [Example 34, 6-Methyl-biphenyl-3,4′-dicarboxylic acid 4′-[(3,4-dimethoxy-phenyl)-amide] 3-[(4-morpholin-4-yl-phenyl)-amide]]
- pIC50 [1]: 5.30 to 6.00
- TD50 [2]: ** (key: * < 50 μM; ** > 50 μM)

Structure (SMILES): Cc1ccc(C(=O)Nc2ccc(N3CCOCC3)cc2)cc1-c1ccc(C(=O)Nc2ccccc2CN(C)C2CCCCC2)cc1 [Example 35, 6-Methyl-biphenyl-3,4′-dicarboxylic acid 4′-({2-[(cyclohexyl-methyl-amino)-methyl]-phenyl}-amide) 3-[(4-morpholin-4-yl-phenyl)-amide]]
- pIC50 [1]: < 5.30
- TD50 [2]: ** (key: * < 50 μM; ** > 50 μM)

Structure (SMILES): Cc1ccc(C(=O)Nc2ccc(N3CCOCC3)cc2)cc1-c1ccc(C(=O)Nc2cccnc2)cc1 [Example 36, 6-Methyl-biphenyl-3,4′-dicarboxylic acid 3-[(4-morpholin-4-yl-phenyl)-amide] 4′-pyridin-3-ylamide]
- pIC50 [1]: 5.30 to 6.00
- TD50 [2]: * (key: * < 50 μM; ** > 50 μM)

Structure (SMILES): Cc1ccc(C(=O)Nc2ccc(N3CCOCC3)cc2)cc1-c1ccc(C(=O)N2CCN(c3cccc(Cl)c3Cl)CC2)cc1 [Example 37, 4′-[4-(2,3-Dichloro-phenyl)-piperazine-1-carbonyl]-6-methyl-biphenyl-3-carboxylic acid (4-morpholin-4-yl-phenyl)-amide]
- pIC50 [1, 3]: < 5.30
- TD50 [2, 4]: ** (** > 50 μM)

Structure (SMILES): Cc1ccc(C(=O)Nc2ccc(N3CCOCC3)cc2)cc1-c1ccc(C(=O)Nc2ccc3[nH]c(C(F)(F)F)nc3c2)cc1 [Example 38, 6-Methyl-biphenyl-3,4′-dicarboxylic acid 3-[(4-morpholin-4-yl-phenyl)-amide] 4′-[(2-trifluoromethyl-1H-benzoimidazol-5-yl)-amide]]
- pIC50 [1]: 5.30 to 6.00
- TD50 [2]: ** (key: * < 50 μM; ** > 50 μM)

Structure (SMILES): Cc1ccc(C(=O)Nc2ccc(N3CCOCC3)cc2)cc1-c1ccc(C(=O)Nc2ccc(CC#N)cc2)cc1 [Example 39, 6-Methyl-biphenyl-3,4′-dicarboxylic acid 4′-[(4-cyanomethyl-phenyl)-amide] 3-[(4-morpholin-4-yl-phenyl)-amide]]
- pIC50 [1]: 5.30 to 6.00
- TD50 [2]: * (key: * < 50 μM; ** > 50 μM)

Structure (SMILES): Cc1ccc(C(=O)Nc2ccc(N3CCOCC3)cc2)cc1-c1ccc(C(=O)NCc2ccsc2)cc1 [Example 40, 6-Methyl-biphenyl-3,4′-dicarboxylic acid 3-[(4-morpholin-4-yl-phenyl)-amide] 4′-[(thiophen-3-ylmethyl)-amide]]
- pIC50 [1]: 5.30 to 6.00
- TD50 [2]: ** (key: * < 50 μM; ** > 50 μM)
